Data taken from patent publication EP4438597A1, “2-STYRYLBENZOTHIAZOLE DERIVATIVES AS A-SYNUCLEIN BINDING COMPOUNDS” (Eberhard Karls Universität Tübingen Medizinische Fakultät, priority 2023, dated 2024).

Biological target: T1, αSYN fibrils (Homo sapiens, UniProt P37840)
Assay: [3H]PiB competition binding assay on αSYN fibrils
Details: not given
Description: (§1) Concentrations of αSYN and Aβ1-42 fibrils were as described above.
Plates were incubated on a shaker (MaxQ 6000, Thermo Fisher Scientific Inc., Marietta, OH, USA) at 50 rpm for 2 hours at 37°C, covered by removable sealing tapes (PerkinElmer, Waltham, MA, USA). […] Data points were fitted using non-linear regression analysis in GraphPad Prism (GraphPad Software, Inc., Version 8.4.0, La Jolla, USA).

With `Cc1cccc2sc(/C=C/c3ccc(N4CCCCC4)cc3)[n+](C)c12` [1b, 3,4-dimethyl-2-(4-(piperidin-1-yl)styryl)benzo[d]thiazol-3-ium 4-nitrobenzenesulfonate] the Ki was 0.06 ± 0.0239 µM.

Same assay, conditions: [3H]PiB competition, αSYN fibrils; MFSB vs PFSB

With `Fc1ccc2nc(C=Cc3ccc(N4CCOCC4)cc3)sc2c1` [compound 45, 4-(4-(2-(6-fluorobenzo[d]thiazol-2-yl)vinyl)phenyl)morpholine] the “affinity improved by factor compared to PFSB” value was 2.5.

Same assay, conditions: [3H]PiB competition, αSYN fibrils; mean Ki ± SEM, two data points (9a, 14a, 15a, 17a, 18a, 43, 44, MFSB three; 12a single); read-out: Ki

Compared with `Fc1ccc2nc(C=Cc3ccc(N4CCCCC4)cc3)sc2c1` (mixture of isomers) [9a, 6-fluoro-2-(4-(piperidin-1-yl)styryl)benzo[d]thiazole], `Fc1ccc2nc(C=CC=Cc3ccc(N4CCCCC4)cc3)sc2c1` [compound 43, 6-fluoro-2-(4-(4-(piperidin-1-yl)phenyl)buta-1,3-dien-1-yl)benzo[d]thiazole] is 8.4-fold higher in Ki: 0.0254 ± 0.0023 µM for the first, 0.214 ± 0.121 µM for the second.

First: Fc1cccc2nc(C=Cc3ccc(N4CCCCC4)cc3)sc12 [12a, 7-fluoro-2-(4-(piperidin-1-yl)styryl)benzo[d]thiazole]
Second: C(=Cc1nc2ccccc2s1)c1ccc(N2CCCC2)cc1 [17a, 2-(4-(pyrrolidin-1-yl)styryl)benzo[d]thiazole]
The Ki of the first is 3.9-fold higher: 0.283 µM for the first, 0.0734 ± 0.019 µM for the second.

`C(C=Cc1nc2ccccc2s1)=Cc1ccc(N2CCCCC2)cc1` [14a, 2-(4-(4-(piperidin-1-yl)phenyl)buta-1,3-dien-1-yl)benzo[d]thiazole] and `Fc1ccc2nc(C=CC=Cc3ccc(N4CCCC4)cc3)sc2c1` [compound 44, 6-fluoro-2-(4-(4-(pyrrolidin-1-yl)phenyl)buta-1,3-dien-1-yl)benzo[d]thiazole] are within error of each other in Ki: 0.0819 ± 0.0156 µM for the first, 0.085 ± 0.041 µM for the second.

`C(=Cc1nc2ccccc2s1)c1ccc(N2CCOCC2)cc1` [15a, 4-(4-(2-(benzo[d]thiazol-2-yl)vinyl)phenyl)morpholine] and `FC1CCN(c2ccc(C=Cc3nc4ccccc4s3)cc2)CC1` [18a, 2-(4-(4-fluoropiperidin-1-yl)styryl)benzo[d]thiazole] are within error of each other in Ki: 0.092 ± 0.0303 µM for the first, 0.0998 ± 0.0326 µM for the second.

For `Fc1ccc2nc(C=Cc3ccc(N4CCOCC4)cc3)sc2c1` [compound 45, 4-(4-(2-(6-fluorobenzo[d]thiazol-2-yl)vinyl)phenyl)morpholine], the Ki was 0.0103 ± 0.0047 µM.

Same assay, conditions: read-out: Ki

`Cc1cccc2sc(C=Cc3ccc(N4CCCCC4)cc3)nc12` [1a, 4-methyl-2-(4-(piperidin-1-yl)styryl)benzo[d]thiazole] and `Fc1cccc2sc(C=Cc3ccc(N4CCCCC4)cc3)nc12` [3a, 4-fluoro-2-(4-(piperidin-1-yl)styryl)benzo[d]thiazole] are within error of each other in Ki: 0.135 ± 0.0635 µM for the first, 0.149 ± 0.038 µM for the second.

Compared with `COc1cccc2sc(C=Cc3ccc(N4CCCCC4)cc3)[n+](C)c12` [2b, 4-methoxy-3-methyl-2-(4-(piperidin-1-yl)styryl)benzo[d]thiazol-3-ium iodide], `COc1cccc2c1sc(C=Cc1ccc(N3CCCCC3)cc1)[n+]2C` [11b, 7-methoxy-3-methyl-2-(4-(piperidin-1-yl)styryl)benzo[d]thiazol-3-ium iodide] is 3.9-fold higher in Ki: 0.0526 ± 0.0183 µM for the first, 0.206 ± 0.0282 µM for the second. The first binds more tightly here.

`Cc1ccc2sc(C=Cc3ccc(N4CCCCC4)cc3)nc2c1` [4a, 5-methyl-2-(4-(piperidin-1-yl)styryl)benzo[d]thiazole] and `Cc1ccc2nc(C=Cc3ccc(N4CCCCC4)cc3)sc2c1` [7a, 6-methyl-2-(4-(piperidin-1-yl)styryl)benzo[d]thiazole] are within error of each other in Ki: 0.161 ± 0.0727 µM for the first, 0.224 ± 0.0061 µM for the second.

First: Cc1ccc2sc(C=Cc3ccc(N4CCCCC4)cc3)[n+](C)c2c1 [4b, 3,5-dimethyl-2-(4-(piperidin-1-yl)styryl)benzo[d]thiazol-3-ium iodide]
Second: Cc1ccc2c(c1)sc(C=Cc1ccc(N3CCCCC3)cc1)[n+]2C [7b, 3,6-dimethyl-2-(4-(piperidin-1-yl)styryl)benzo[d]thiazol-3-ium iodide]
The Ki of the first is 3.6-fold higher: 0.0722 ± 0.0124 µM for the first, 0.0203 ± 0.0035 µM for the second. The second binds more tightly here.

`COc1ccc2sc(C=Cc3ccc(N4CCCCC4)cc3)nc2c1` [5a, 5-methoxy-2-(4-(piperidin-1-yl)styryl)benzo[d]thiazole] and `COc1ccc2nc(C=Cc3ccc(N4CCCCC4)cc3)sc2c1` [8a, 6-methoxy-2-(4-(piperidin-1-yl)styryl)benzo[d]thiazole] are within 1.5-fold of each other in Ki: 0.158 ± 0.0297 µM for the first, 0.106 ± 0.0036 µM for the second.

Going from `COc1ccc2sc(C=Cc3ccc(N4CCCCC4)cc3)[n+](C)c2c1` [5b, 5-methoxy-3-methyl-2-(4-(piperidin-1-yl)styryl)benzo[d]thiazol-3-ium iodide] to `COc1ccc2c(c1)sc(C=Cc1ccc(N3CCCCC3)cc1)[n+]2C` [8b, 6-methoxy-3-methyl-2-(4-(piperidin-1-yl)styryl)benzo[d]thiazol-3-ium iodide], the Ki falls from 0.0952 ± 0.0677 µM to 0.0147 ± 0.0051 µM (6.5-fold).

`Fc1ccc2sc(C=Cc3ccc(N4CCCCC4)cc3)nc2c1` [6a, 5-fluoro-2-(4-(piperidin-1-yl)styryl)benzo[d]thiazole] and `C(=Cc1nc2ccccc2s1)c1ccc(N2CCCCC2)cc1` [compound 20, 2-(4-(piperidin-1-yl)styryl)benzo[d]thiazole] are within error of each other in Ki: 0.147 ± 0.0223 µM for the first, 0.102 ± 0.0685 µM for the second.

`C[n+]1c(C=Cc2ccc(N3CCCCC3)cc2)sc2ccc(F)cc21` [6b, 5-fluoro-3-methyl-2-(4-(piperidin-1-yl)styryl)benzo[d]thiazol-3-ium iodide] and `C[n+]1c(C=Cc2ccc(N3CCCCC3)cc2)sc2cc(F)ccc21` [9b, 6-fluoro-3-methyl-2-(4-(piperidin-1-yl)styryl)benzo[d]thiazol-3-ium iodide] are within error of each other in Ki: 0.352 ± 0.0835 µM for the first, 0.189 ± 0.146 µM for the second.

`Cc1cccc2c1sc(C=Cc1ccc(N3CCCCC3)cc1)[n+]2C` [10b, 3,7-dimethyl-2-(4-(piperidin-1-yl)styryl)benzo[d]thiazol-3-ium iodide] and `C[n+]1c(C=Cc2ccc(N3CCCC3)cc2)sc2ccccc21` [17b, 3-methyl-2-(4-(pyrrolidin-1-yl)styryl)benzo[d]thiazol-3-ium iodide] are within error of each other in Ki: 0.148 ± 0.0837 µM for the first, 0.102 ± 0.043 µM for the second.

`c1ccc2sc(-c3ccc(N4CCCCC4)cc3)nc2c1` [13a, 2-(4-(piperidin-1-yl)phenyl)benzo[d]thiazole] and `C[n+]1c(C=CC=Cc2ccc(N3CCCCC3)cc2)sc2ccccc21` [14b, 3-methyl-2-(4-(4-(piperidin-1-yl)phenyl)buta-1,3-dien-1-yl)benzo[d]thiazol-3-ium iodide] are within error of each other in Ki: 0.0733 ± 0.0612 µM for the first, 0.0199 ± 0.0031 µM for the second.

In the case of `C(=Cc1nc2ccccc2s1)c1ccc(N2CCSCC2)cc1` [16a, 2-(4-thiomorpholinostyryl)benzo[d]thiazole], the Ki is reported as 0.139 ± 0.0802 µM.

Biological target: T1, αSYN fibrils
Assay: [3H]MODAG-001 competition binding assay on αSYN fibrils
Details: [3H]MODAG-001 competition; MFSB vs PFSB
Description: as §1
(§2) Plates were incubated on a shaker (MaxQ 6000, Thermo Fisher Scientific Inc., Marietta, OH, USA) at 50 rpm for 2 hours at 37°C, covered by removable sealing tapes (PerkinElmer, Waltham, MA, USA). Vacuum filtration and read-out were performed as disclosed in Kuebler, L. et al., [11C]MODAG-001-towards a PET tracer targeting α-synuclein aggregates; European Journal of Nuclear Medicine and Molecular Imaging 2020, 48, 1759-1772. […] Data points were fitted using non-linear regression analysis in GraphPad Prism (GraphPad Software, Inc., Version 8.4.0, La Jolla, USA).

`Fc1ccc2nc(C=Cc3ccc(N4CCOCC4)cc3)sc2c1` [compound 45, 4-(4-(2-(6-fluorobenzo[d]thiazol-2-yl)vinyl)phenyl)morpholine] was tested, and the “fold lower Ki than PFSB” value was 4.6 fold.

Same assay, conditions: competition with [3H]MODAG-001, αSYN fibrils

Going from `Fc1ccc2nc(C=Cc3ccc(N4CCCCC4)cc3)sc2c1` (mixture of isomers) [9a, 6-fluoro-2-(4-(piperidin-1-yl)styryl)benzo[d]thiazole] to `Fc1ccc2nc(C=Cc3ccc(N4CCOCC4)cc3)sc2c1` [compound 45, 4-(4-(2-(6-fluorobenzo[d]thiazol-2-yl)vinyl)phenyl)morpholine], the Ki falls from 0.142 ± 0.0169 µM to 0.0308 ± 0.0105 µM (4.6-fold). The second binds more tightly here.

Biological target: T2, αSYN pathology (Homo sapiens, UniProt P37840)
T2 construct: tissue Neurobiobank München (NBM, Munich, Germany); host or cells: post-mortem human brain slices (MSA cerebellum, PD frontal cortex, controls)
Assay: in vitro autoradiography on human brain slices with αSYN pathology (MSA, PD)
Format: binding
Details: mean over MSA brain slices
Description: Post-mortem human brain slices (10 µm thickness) were obtained from and the subject cases were analyzed by the Neurobiobank München (NBM, Munich, Germany), where tissues were collected on the basis of written informed consent according to the guidelines of the ethics committee of the Ludwig-Maximilians-University Munich, Germany (# 345-13). The use of brain tissue samples in this study was approved by the ethics committee of the Faculty of Medicine at the University of Tuebingen (Ethics approval number: 813/2018BO2). Table 1 summarizes the information of the subjects from which samples were obtained and used in the experiment.
For autoradiography, brain slices were thawed for one hour before preincubation in BSA buffer for 25 minutes at room temperature. To determine total binding (TB), brain slices were incubated with the tracer (10 nM [^18F]PFSB, 10 nM [^18F]MFSB). […]
Quantitative data analysis was performed by drawing four regions of interest (ROIs) in relevant areas of the slice and one ROI next to it for background subtraction (imaged 1.8.0_172, National Institute of Health, Bethesda, Maryland, USA) (Schneider, C. A. et al., NIH Image to imaged: 25 years of image analysis; Nat Methods 2012, 9 (7), 671-5). […] The SB disease/SB control ratio was calculated by dividing by the SB in diseased tissues with the respective SB in control tissues.

For `[18F]c1ccc2nc(/C=C/c3ccc(N4CCCCC4)cc3)sc2c1` [[^18F]PFSB], the “specific binding (SB) ratio, MSA patients compared to control of the same brain area” value was 3.94 ± 0.30.

Biological target: T3, Aβ1-42 fibrils (Homo sapiens, UniProt P05067)
T3 construct: Synthetic lyophilized human Aβ1-42 peptide; purchased EMC Microcollections, Tuebingen, Germany; host or cells: chemical synthesis
Assay: [3H]PiB competition binding assay on Aβ fibrils
Details: [3H]PiB competition on Aβ fibrils
Source text: The method for Aβ1-42 fibrils generation was adapted from Bagchi, D. P. et al., Binding of the radioligand SIL23 to alpha-synuclein fibrils in Parkinson disease brain tissue establishes feasibility and screening approaches for developing a Parkinson disease imaging agent; PLoS One 2013, 8 (2), e55031, and described in Kuebler, L. et al., [11C]MODAG-001-towards a PET tracer targeting α-synuclein aggregates; European Journal of Nuclear Medicine and Molecular Imaging 2020, 48, 1759-1772. Synthetic lyophilized human Aβ1-42 peptide (5 mg) with >90 % purity (EMC Microcollections, Tuebingen, Germany) was dissolved in DMSO (221.5 µL), followed by the addition of deionized water (4.1 mL) and 1 M Tris-HCl (111 µL, pH 7.6) to reach a final monomeric concentration of 250 µM. Aggregation was induced by incubation in Eppendorf Thermomixer at 37°C with shaking at 800 rpm for 72 hours. The resulted fibrils were sonicated for 3 min in a water bath (Elmasonic S 60 H, Elma Schmidbauer GmbH, Singen, Germany). The final products were aliquoted, frozen on dry ice, and stored at -80°C until use.
as §1, §2

T3 sequence (P05067 672-713 limits assumed): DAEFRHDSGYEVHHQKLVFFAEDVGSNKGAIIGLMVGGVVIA

In the case of `Fc1ccc2nc(C=CC=Cc3ccc(N4CCCCC4)cc3)sc2c1` [compound 43, 6-fluoro-2-(4-(4-(piperidin-1-yl)phenyl)buta-1,3-dien-1-yl)benzo[d]thiazole], the “binding to Aβ fibrils (competition with [3H]PiB)” value is reported as “low”.
With `Fc1ccc2nc(C=CC=Cc3ccc(N4CCCC4)cc3)sc2c1` [compound 44, 6-fluoro-2-(4-(4-(pyrrolidin-1-yl)phenyl)buta-1,3-dien-1-yl)benzo[d]thiazole] the “binding to Aβ fibrils (competition with [3H]PiB)” value was “low”.

Same assay, conditions: from [3H]PiB competition on αSYN and Aβ fibrils

In the case of `Fc1ccc2nc(C=Cc3ccc(N4CCOCC4)cc3)sc2c1` [compound 45, 4-(4-(2-(6-fluorobenzo[d]thiazol-2-yl)vinyl)phenyl)morpholine], the “selectivity towards αSYN over Aβ” value is reported as “remained unchanged”.
